Results taken from US8445674B2, “Heterocyclyl compounds” (Hoffmann-La Roche Inc, priority 2009, dated 2013).

The compounds below were run against T1, human chemokine receptor 2 isoform B (Homo sapiens, UniProt P41597) (assay: Calcium mobilization assay (FLIPR, antagonist activity against MCP-1)). Conditions: Ca mobilisation assay, CHOK1-CCR2B-A5 cells, inhibition of calcium increase induced by 20 nM MCP-1.
T1 construct: host or cells: CHOK1-CCR2B-A5 cells (CHO-K1)
T1 sequence (P41597 1-360 isoform P41597-2): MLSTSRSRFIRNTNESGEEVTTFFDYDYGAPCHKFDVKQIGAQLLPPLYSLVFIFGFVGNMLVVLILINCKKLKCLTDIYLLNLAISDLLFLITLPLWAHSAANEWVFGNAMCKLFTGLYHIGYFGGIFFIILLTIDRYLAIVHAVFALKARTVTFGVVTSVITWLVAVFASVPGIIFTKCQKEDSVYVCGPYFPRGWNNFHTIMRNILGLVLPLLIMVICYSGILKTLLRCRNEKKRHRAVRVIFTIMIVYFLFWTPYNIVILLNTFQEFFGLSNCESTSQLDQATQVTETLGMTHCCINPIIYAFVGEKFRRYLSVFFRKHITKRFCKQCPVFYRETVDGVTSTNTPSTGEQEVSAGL
Type: cell-based
In short: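 CHOK1 cells stably overexpressing human CCR2B, loaded with 4 μM Fluo-4 for 2 h at 30° C, compounds added and agonist signal read by FLIPR for 80 s. After 20-30 min at 30° C, 20 nM MCP-1 was added and fluorescence read again. IC50 is 50% inhibition of specific calcium increase (max minus basal).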

Row | Compound | IC50 [nM]
1 | C[C@H]1C(=O)N(CCCC(=O)N2CCS(=O)(=O)CC2)CCN1C(=O)Nc1cccc(Cl)c1 [Example 110, (S)-4-[4-(1,1-Dioxo-1 lambda*6*-thiomorpholin-4-yl)-4-oxo-butyl]-2-methyl-3-oxo-piperazine-1-carboxylic acid (3-chloro-phenyl)-amide] | 1340
2 | C[C@H]1C(=O)N(CCCC(=O)N2CCC3(CC3)[C@H](O)C2)CCN1C(=O)Nc1ccc(Cl)cc1 [Example 27, (S)-4-[4-((S)-4-Hydroxy-6-aza-spiro[2.5]oct-6-yl)-4-oxo-butyl]-2-methyl-3-oxo-piperazine-1-carboxylic acid (4-chloro-phenyl)-amide] | 85
3 | C[C@H]1C(=O)N(CCCC(=O)N2CCC3(CC3)[C@H](O)C2)CCN1C(=O)Nc1ccc(Cl)c(OC(F)(F)F)c1 [Example 35, (S)-4-[4-((S)-4-Hydroxy-6-aza-spiro[2.5]oct-6-yl)-4-oxo-butyl]-2-methyl-3-oxo-piperazine-1-carboxylic acid (4-chloro-3-trifluoromethoxy-phenyl)-amide] | 4.9
4 | O=C(/C=C/c1ccc(Cl)c(Cl)c1)N1CCC(=O)N(C(CCO)C(=O)N2CCCC2)CC1 (racemic) [Example 5, rac-(1-[(E)-3-(3,4-Dichloro-phenyl)-acryloyl]-4-[3-hydroxy-1-(pyrrolidine-1-carbonyl)-propyl]-[1,4]diazepan-5-one)] | 583
5 | C[C@@H]1C(=O)N(CCCC(=O)N2CCC3(CC3)[C@H](O)C2)[C@@H](C(N)=O)CN1C(=O)Nc1ccc(C(F)(F)F)c(Cl)c1 [Example 150, (3R,6R)-4-[4-((S)-4-Hydroxy-6-aza-spiro[2.5]oct-6-yl)-4-oxo-butyl]-6-methyl-5-oxo-piperazine-1,3-dicarboxylic acid 3-amide 1-[(3-chloro-4-trifluoromethyl-phenyl)-amide]] | 18
6 | C[C@H]1C(=O)N(CCCC(=O)N2CCC3(CC2)COC3)CCN1C(=O)Nc1cccc(Cl)c1 [Example 36, (S)-2-Methyl-4-[4-(2-oxa-7-aza-spiro[3.5]non-7-yl)-4-oxo-butyl]-3-oxo-piperazine-1-carboxylic acid (3-chloro-phenyl)-amide] | 2340
7 | C[C@H]1C(=O)N([C@H](CO)CCC(=O)N2CCC3(CC3)[C@H](O)C2)CCN1C(=O)Nc1ccc(C(F)(F)F)c(Cl)c1 [Example 53, (S)-4-[(S)-4-((S)-4-Hydroxy-6-aza-spiro[2.5]oct-6-yl)-1-hydroxymethyl-4-oxo-butyl]-2-methyl-3-oxo-piperazine-1-carboxylic acid (3-chloro-4-trifluoromethyl-phenyl)-amide] | 4.3
8 | C[C@H]1C(=O)N(CCC(=O)N2CCC3(CC3)[C@H](O)C2)CCN1C(=O)/C=C/c1ccc(F)c(Cl)c1 [Example 64, (S)-4-[(E)-3-(3-Chloro-4-fluoro-phenyl)-acryloyl]-1-[3-((S)-4-hydroxy-6-aza-spiro[2.5]oct-6-yl)-3-oxo-propyl]-3-methyl-piperazin-2-one] | 1240
9 | C[C@H]1C(=O)N([C@@H](CCC(=O)N2CCC3(CC3)[C@H](O)C2)C(N)=O)CCN1C(=O)Nc1ccc(C(F)(F)F)c(Cl)c1 [Example 141, (S)-4-[(S)-1-Carbamoyl-4-((S)-4-hydroxy-6-aza-spiro[2.5]oct-6-yl)-4-oxo-butyl]-2-methyl-3-oxo-piperazine-1-carboxylic acid (3-chloro-4-trifluoromethyl-phenyl)-amide] | 500
10 | O=C(/C=C/c1ccc(Cl)c(Cl)c1)N1CCC(=O)N(CCC(=O)N2CCCC(O)C2)CC1 (racemic) [Example 70, (rac)-1-[(E)-3-(3,4-Dichloro-phenyl)-acryloyl]-4-[3-(3-hydroxy-piperidin-1-yl)-3-oxo-propyl]-[1,4]diazepan-5-one] | 1300
11 | C[C@H]1C(=O)N(CCCC(=O)N2CCC3(CC3)[C@H](O)C2)CCN1C(=O)Nc1ccc(Cl)c(Cl)c1 [Example 25, (S)-4-[4-((S)-4-Hydroxy-6-aza-spiro[2.5]oct-6-yl)-4-oxo-butyl]-2-methyl-3-oxo-piperazine-1-carboxylic acid (3,4-dichloro-phenyl)-amide] | 3.6
12 | C[C@H]1CCN(C(=O)CCCN2CCN(C(=O)Nc3cccc(Cl)c3)[C@@H](C)C2=O)C[C@H]1O [Example 111, (S)-4-[4-((3S,4S)-3-Hydroxy-4-methyl-piperidin-1-yl)-4-oxo-butyl]-2-methyl-3-oxo-piperazine-1-carboxylic acid (3-chloro-phenyl)-amide] | 893
13 | COC(=O)[C@H](CCC(=O)N1CCC2(CC2)[C@H](O)C1)N1CCN(C(=O)Nc2ccc(C(F)(F)F)c(C(F)(F)F)c2)[C@@H](C)C1=O [Example 143, (S)-2-[(S)-4-(3,4-Bis-trifluoromethyl-phenylcarbamoyl)-3-methyl-2-oxo-piperazin-1-yl]-5-((S)-4-hydroxy-6-aza-spiro[2.5]oct-6-yl)-5-oxo-pentanoic acid methyl ester] | 337
14 | COC(=O)C(CC(=O)N1CCC2(CC2)[C@H](O)C1)N1CCN(C(=O)/C=C/c2ccc(Cl)c(Cl)c2)CCC1=O (stereo partly drawn) [Example 7, (R,S)-2-{4-[(E)-3-(3,4-Dichloro-phenyl)-acryloyl]-7-oxo-[1,4]diazepan-1-yl}-4-((S)-4-hydroxy-6-aza-spiro[2.5]oct-6-yl)-4-oxo-butyric acid methyl ester] | 453
15 | O=C(/C=C/c1ccc(Cl)c(Cl)c1)N1CCC(=O)N(CCC(=O)N2CCCC(CO)C2)CC1 (racemic) [Example 68, (rac)-1-[(E)-3-(3,4-Dichloro-phenyl)-acryloyl]-4-[3-(3-hydroxymethyl-piperidin-1-yl)-3-oxo-propyl]-[1,4]diazepan-5-one] | 758
16 | C[C@@H]1CN(CCC(=O)N2CCC3(CC3)[C@H](O)C2)C(=O)CCN1C(=O)/C=C/c1cccc(Cl)c1 [Example 104, (R)-1-[(E)-3-(3-Chloro-phenyl)-acryloyl]-4-[3-((S)-4-hydroxy-6-aza-spiro[2.5]oct-6-yl)-3-oxo-propyl]-2-methyl-[1,4]diazepan-5-one] | 100
17 | C[C@H]1C(=O)N(CC(O)CC(=O)N2CCC3(CC3)[C@H](O)C2)CCN1C(=O)Nc1ccc(C(F)(F)F)c(C(F)(F)F)c1 (stereo partly drawn) [Example 47, (S)-4-[(R,S)-2-Hydroxy-4-((S)-4-hydroxy-6-aza-spiro[2.5]oct-6-yl)-4-oxo-butyl]-2-methyl-3-oxo-piperazine-1-carboxylic acid (3,4-bis-trifluoromethyl-phenyl)-amide] | 5.4
18 | C[C@H]1C(=O)N(CCC(O)C(=O)N2CCC3(CC3)[C@H](O)C2)CCN1C(=O)Nc1ccc(C(F)(F)F)c(Cl)c1 (stereo partly drawn) [Example 133, (S)-4-[(R,S)-3-Hydroxy-4-((S)-4-hydroxy-6-aza-spiro[2.5]oct-6-yl)-4-oxo-butyl]-2-methyl-3-oxo-piperazine-1-carboxylic acid (3-chloro-4-trifluoromethyl-phenyl)-amide] | 134
19 | C[C@H]1C(=O)N(CCC(=O)N2CCOCC2)CCN1C(=O)Nc1ccc(Cl)c(Cl)c1 [Example 22, (S)-2-Methyl-4-(3-morpholin-4-yl-3-oxo-propyl)-3-oxo-piperazine-1-carboxylic acid (3,4-dichloro-phenyl)-amide] | 3070
20 | CC1CCN(C(=O)CCN2CCN(C(=O)/C=C/c3ccc(Cl)c(Cl)c3)CCC2=O)CC1O (racemic) [Example 71, (rac)-1-[(E)-3-(3,4-Dichloro-phenyl)-acryloyl]-4-[3-(3-hydroxy-4-methyl-piperidin-1-yl)-3-oxo-propyl]-[1,4]diazepan-5-one] | 681
21 | C[C@@H]1CN([C@H](CO)CCC(=O)N2CCC3(CC3)[C@H](O)C2)C(=O)CCN1c1ccc(C(F)(F)F)c(C(F)(F)F)c1 [Example 128, (R)-1-(3,4-bis-trifluoromethyl-phenyl)-4-[(S)-4-((S)-4-hydroxy-6-aza-spiro[2.5]oct-6-yl)-1-hydroxymethyl-4-oxo-butyl]-2-methyl-[1,4]diazepan-5-one] | 4.6
22 | C[C@H]1C(=O)N([C@@H](CO)CCC(=O)N2CCC3(CC3)[C@H](O)C2)CCN1C(=O)Nc1ccc(C(F)(F)F)c(Cl)c1 [Example 146, (S)-4-[(R)-4-((S)-4-Hydroxy-6-aza-spiro[2.5]oct-6-yl)-1-hydroxymethyl-4-oxo-butyl]-2-methyl-3-oxo-piperazine-1-carboxylic acid (3-chloro-4-trifluoromethyl-phenyl)-amide] | 157
23 | C[C@H]1C(=O)N(CCCC(=O)N2CCC3(CC3)[C@H](O)C2)CCN1c1ccc(Cl)c(OC(F)(F)F)c1 [Example 62, (S)-4-(4-chloro-3-trifluoromethoxy-phenyl)-1-[4-((S)-4-hydroxy-6-aza-spiro[2.5]oct-6-yl)-4-oxo-butyl]-3-methyl-piperazin-2-one] | 41.7
24 | C[C@H]1C(=O)N([C@@H](CCC(=O)N2CCC3(CC3)[C@H](O)C2)C(=O)O)CCN1C(=O)Nc1ccc(C(F)(F)F)c(Cl)c1 [Example 140, (S)-2-[(S)-4-(3-Chloro-4-trifluoromethyl-phenylcarbamoyl)-3-methyl-2-oxo-piperazin-1-yl]-5-((S)-4-hydroxy-6-aza-spiro[2.5]oct-6-yl)-5-oxo-pentanoic acid] | 751
25 | C[C@H]1C(=O)N(CCC(=O)N2CCC3(CC3)[C@H](O)C2)CCN1C(=O)Nc1ccc(Cl)c(Cl)c1 [Example 15, (S)-4-[3-((S)-4-Hydroxy-6-aza-spiro[2.5]oct-6-yl)-3-oxo-propyl]-2-methyl-3-oxo-piperazine-1-carboxylic acid (3,4-dichloro-phenyl)-amide] | 237
